# Measurements as given in patent publication US12480163B2, “Compositions and methods for identification assessment, prevention, and treatment of Ewing sarcoma using TP53 dependency biomarkers and modulators” (Dana-Farber Cancer Institute, Inc., priority 2018, dated 2025).
# Entries after “also recorded” stand apart in the source; their conditions may differ.
# Columns and labels:
# [1] = system: TC32 xenograft tumor tissues; experiment: Pharmacodynamics study in TC32 xenograft tumor tissue (Western blot, quantitative PCR); format: in vivo, mice; conditions: three doses 30 mg/kg IV q.o.d., 8 h after last dose
# Procedure: (§1) Whole-cell lysates were extracted in cell lysis buffer (Cell Signaling) supplemented with EDTA-free protease inhibitors and PhosSTOP™ phosphatase inhibitors (Roche). Western immunoblotting was performed using standard techniques. Primary antibodies used included anti-MDM2 (ab178938; Abcam), anti-MDM2 (86934; Cell Signaling), anti-MDM4 (A300-287A; Bethyl Laboratories), anti-p53 (2527S; Cell Signaling), anti-p21 (2946S; Cell Signaling), anti-Vinculin (18058; Abcam), anti-Wip1 (A300-664A; Bethyl Laboratories), anti-pSer15-p53 (9284; Cell Signaling), anti-USP7 (A300-033A; Bethyl Laboratories), and anti-Tubulin (cp06; CalBiochem).
# (§2) RNA was extracted from cells with the RNeasy® kit and on-column DNA digestion (Qiagen). cDNA was prepared using M-MLV reverse transcription (ThermoFisher Scientific). TaqMan™ Gene Expression Master Mix (Applied Biosystems) was used per the manufacturer's protocol. TaqMan™ probes included RPL13A (Hs04194366_g1; ThermoFisher Scientific), CDKNIA (Hs00355782_m1; Thermo Fisher Scientific), and MDM2 (Hs01066930_m1; ThermoFisher Scientific). Data were collected in triplicate and analyzed using the ΔΔCT method.
# (§3) For pharmacodynamics studies, tumor xenografts were established in six nude female mice by implanting three million TC32 cells or PDX tumor fragments into the right flank. Animals were randomized to either ATSP-7041 (n=3) or vehicle treatment (n=3). […]
# PDX tumor tissues = experiment: Pharmacodynamics study in PDX tumor tissue (Western blot, quantitative PCR); format: in vivo, mice; conditions: PDX HSJD-ES-002, three doses 30 mg/kg q.o.d.
# Procedure: as §1, §2, §3
# [2] = system: TP53 wild-type Ewing sarcoma cell lines; experiment: Annexin V staining, flow cytometry (cell death); format: cell-based; conditions: TC32 and CHLA258; 2 d ATSP-7041 (2 μM, 4 μM) or P5091 (6.5 μM, 8 μM), 3 d GSK2830371 (15 μM)
# Procedure: Cell death was measured using flow cytometric analysis of Annexin V staining according to the manufacturer's instructions (eBioscience). Data analysis was completed using Flowjo 7.6 software (Treestar).
# Wip1 = molecular target: T1, Wip1 (Homo sapiens, UniProt O15297); experiment: Western immunoblotting of Wip1 and pSer15-p53; format: cell-based; conditions: TC32 and CHLA258 cells, 2 d
# T1 construct: Whole-cell lysates were extracted in cell lysis buffer (Cell Signaling); endogenous in cells; host or cells: TP53 wild-type Ewing sarcoma cell lines
# T1 sequence (O15297 1-605): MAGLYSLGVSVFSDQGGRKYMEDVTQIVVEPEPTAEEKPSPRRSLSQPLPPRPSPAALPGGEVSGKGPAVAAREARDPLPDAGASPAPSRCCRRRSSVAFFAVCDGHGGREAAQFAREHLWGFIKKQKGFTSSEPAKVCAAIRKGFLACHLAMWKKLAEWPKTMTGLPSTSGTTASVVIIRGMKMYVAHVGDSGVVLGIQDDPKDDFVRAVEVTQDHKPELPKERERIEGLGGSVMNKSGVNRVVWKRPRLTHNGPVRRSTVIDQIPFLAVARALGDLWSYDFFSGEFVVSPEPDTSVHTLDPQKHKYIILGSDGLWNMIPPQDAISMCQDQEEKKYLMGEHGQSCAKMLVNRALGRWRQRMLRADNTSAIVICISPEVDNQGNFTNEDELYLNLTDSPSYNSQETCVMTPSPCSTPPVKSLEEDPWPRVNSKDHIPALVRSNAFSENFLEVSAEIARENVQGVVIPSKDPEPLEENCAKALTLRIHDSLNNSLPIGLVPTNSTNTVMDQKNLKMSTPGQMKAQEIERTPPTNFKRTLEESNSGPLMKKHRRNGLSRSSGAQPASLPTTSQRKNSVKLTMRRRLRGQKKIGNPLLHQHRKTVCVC
# Procedure: as §1
# [3] = system: TP53 mutated Ewing sarcoma cell lines; experiment: CellTiter-Glo cell viability assay, TP53 mutated Ewing sarcoma cell lines; format: cell-based; conditions: treated for 3 d
# Procedure: (§4) Cell viability was assessed using the CellTiter-Glo® Luminescent Cell Viability Assay (Promega). Viability assays were performed after Ewing sarcoma cell lines were infected with sgRNAs targeting TP53, MDM2, MDM4, PPM1D, or USP7 or treated with ATSP-7041, ATSP-7342, GSK2830371, P5091, XL-188, or vehicle control.
# [4] = system: TC32, TC138, and CHLA258 cells; experiment: Drug synergy analysis, Chou-Talalay combination index for Loewe additivity; format: cell-based; conditions: CI<1 synergistic; for combination index, ATSP-7041 combined with P5091: CI>1 antagonistic
# Procedure: as §4
# k. Drug Synergy Analysis Chou-Talalay Combination Index for Loewe Additivity
# Loewe Additivity is a dose-effect approach that estimates the effect of combining two drugs based on the concentration of each individual drug that produces the same quantitative effect (Goldoni and Johansson (2007) Toxicol. In Vitro 21:759-769). […] They introduced the combination index (CI) scores to estimate the interaction between the two drugs. If CI<1, the drugs have a synergistic effect, and if CI>1, the drugs have an antagonistic effect. CI=1 means the drugs have an additive effect.
# [5] = system: MDM2, p53, and p21 protein levels; experiment: Western immunoblotting of MDM2, p53, p21 in TP53 wild-type Ewing sarcoma cell lines; format: cell-based
# Procedure: as §1
# [6] = TC32, TC138, CHLA258, 3 d, CI=1 additive
structure (smiles),measurement,setting,value
"CC(=O)N[C@@H](CC(C)C)C(=O)N[C@H](C(=O)N[C@@H](Cc1ccccc1)C(=O)N[C@]1(C)CCCCCCC=CCCC[C@@](C)(C(=O)N[C@@H](CO)C(=O)N[C@@H](C)C(=O)N[C@@H](C)C(N)=O)NC(=O)[C@H](CC2CCC2)NC(=O)[C@H](CCC(N)=O)NC(=O)[C@H](C)NC(=O)[C@H](Cc2c[nH]c3ccccc23)NC(=O)[C@H](Cc2ccc(O)cc2)NC(=O)[C@H](CCC(=O)O)NC1=O)[C@@H](C)O [ATSP-7041, Ac-Leu17-Thr-Phe-cyclo(R8-Glu-Tyr-Trp-Ala-Gln-Cba-S5)-Ser-Ala-Ala30-NH2]","MDM2, p53, and p21 protein levels in tumor tissue",[1],"increase of MDM2, p53, and p21 protein levels; also recorded: increase in MDM2, p53, and p21 protein levels"
same,MDM2 and p21 mRNA levels in tumor tissue,[1]; quantitative PCR,increase of MDM2 mRNA levels; also recorded: increase of p21 mRNA levels
same,p53 pathway protein levels in tumor tissue,PDX tumor tissues; 8 h after last dose,"increase of MDM2, p53, and p21 protein levels; also recorded: increased intratumoral p53 and p21 protein levels"
same,MDM2 and p21 mRNA levels in tumor tissue,PDX tumor tissues; quantitative PCR,increase of MDM2 mRNA levels; also recorded: increase of p21 mRNA levels; also recorded: increased MDM2 and p21 mRNA levels
same,cell death measured by Annexin V staining,[2],triggers cell death; also recorded: induction of cell death
same,"phosphorylation of p53 at Serine 15, combination of ATSP-7041 and GSK2830371",Wip1,increased phospho-Serine15-p53 protein levels; also recorded: increased the phosphorylation of p53 at Serine 15; also recorded: increases the level of pSer15 on p53 more than with either molecule alone
same,"cell viability, normalized to vehicle control",[3],resistant
same,"combination index, ATSP-7041 combined with P5091","[4]; CHLA258, 5 d, CI=1 additive",additivity
same,"combination index, ATSP-7041 combined with doxorubicin",[4]; [6],additivity or synergy
same,"combination index, ATSP-7041 combined with etoposide",[4]; [6],additivity or synergy
same,"combination index, ATSP-7041 combined with vincristine",[4]; [6],additivity or synergy
same,"combination index, ATSP-7041 combined with GSK2830371","[4]; TC32, TC138, and CHLA258, 3 d",strong synergy
same,"combination index, ATSP-7041 combined with P5091","[4]; TC32 and TC138, 5 d, CI=1 additive",synergy
same,"p53 protein levels, combination of ATSP-7041 and doxorubicin","[5]; TC32 cells, 2 d",greatly increased p53 protein levels
same,"p53 protein levels, combination of ATSP-7041 and etoposide","[5]; TC32 cells, 2 d",greatly increased p53 protein levels
same,"p53 protein levels, combination of ATSP-7041 and vincristine","[5]; TC32 cells, 2 d",greatly increased p53 protein levels
same,"MDM2, p53, and p21 protein levels","[5]; TP53 wild-type Ewing sarcoma cell lines, Western blot","increased protein levels of MDM2, p53, and p21; also recorded: Concentration-dependent increases"
